The source of these data is patent US12613236B2, “Lung fibrosis model and methods of using the same” (DUKE UNIVERSITY, priority 2019, dated 2026).

For one assay, the system named is TP53 signaling. Put plainly: Nutlin-3a treatment after bleomycin injury in Sftpc-CreER; R26R-tdTomato mice, AGER immunostaining. The following applies: uninjured (PBS) mice that received Nutlin-3a; 20 mg kg-1 d-1 intraperitoneal for ten days.
Another assay deals with T1, Runx1 (Mus musculus, UniProt Q03347).
T1 construct: Lipofibroblasts were cultured in the presence of Ro 5-3335 and TGF-B for 48 hours; endogenous in cells; host or cells: primary lung lipofibroblasts (mouse, inferred) in culture
T1 sequence (Q03347 whole entry): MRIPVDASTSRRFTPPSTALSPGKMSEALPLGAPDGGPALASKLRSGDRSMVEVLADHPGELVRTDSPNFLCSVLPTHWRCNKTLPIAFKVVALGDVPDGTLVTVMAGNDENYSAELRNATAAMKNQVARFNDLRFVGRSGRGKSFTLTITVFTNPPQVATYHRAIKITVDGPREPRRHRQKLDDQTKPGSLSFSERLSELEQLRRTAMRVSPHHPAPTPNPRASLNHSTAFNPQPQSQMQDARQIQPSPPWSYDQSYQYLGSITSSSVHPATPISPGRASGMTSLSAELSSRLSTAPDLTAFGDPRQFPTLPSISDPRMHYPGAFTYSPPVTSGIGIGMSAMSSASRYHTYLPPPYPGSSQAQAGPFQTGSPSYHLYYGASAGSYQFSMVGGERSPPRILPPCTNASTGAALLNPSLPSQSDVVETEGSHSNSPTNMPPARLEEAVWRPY
Put plainly: Lipofibroblast culture with TGF-B induced myofibrogenesis, Runx1 pharmacologic inhibition. In kind it is cell-based. The following applies: lipofibroblasts cultured in the presence of Ro 5-3335 and TGF-B for 48 hours.

`COc1ccc(C2=N[C@@H](c3ccc(Cl)cc3)[C@@H](c3ccc(Cl)cc3)N2C(=O)N2CCNC(=O)C2)c(OC(C)C)c1` [Nutlin-3a]: in the assay on TP53 signaling, the “AGER+Sftpc-tdt+ cells in uninjured lungs” value is recorded as “no AGER+Sftpc-tdt+ cells”.

Regarding `O=C1CN=C(c2ccc[nH]2)c2cc(Cl)ccc2N1` [Ro 5-3335], on Runx1, the “PDGFRA expression and cell shape of lipofibroblasts” value is “maintained PDGFRA expression and their stellate shape”; the “aSMA expression and myofibrotic conversion” value is “virtually no aSMA expression and myofibrotic conversion”.
